Test system: influenza virus H5N1-Vac3
Type: cell-based

| Substance | anti-viral effect | anti-viral effect at low concentration |
| --- | --- | --- |
| Cyclo(Ac-Trp-Thr-MeGly-Asp-MePhe-MePhe-Ser-MeSer-His-Tyr-Thr-Val-Pro-Ala-Cys)-amide [iHA-100-R14A] | high anti-viral effect | high anti-viral effect even when their concentration is low |
| Cyclo(Ac-Trp-Thr-MeGly-Asp-MePhe-MePhe-Ser-MeSer-His-Tyr-Thr-Val-Pro-Dap-Cys)-amide [iHA-100-R14Dap] | high anti-viral effect | high anti-viral effect even when their concentration is low |
| Cyclo(Ac-Trp-Thr-MeGly-Asp-MePhe-MePhe-Ser-MeSer-His-Tyr-Thr-Val-Pro-Glu-Cys)-amide [iHA-100-R14E] | high anti-viral effect | – |

Source: US10328143B2, “Hemagglutinin-binding peptide” (priority 2014, dated 2019)
